Measurements as given in ChEMBL document CHEMBL1201862, “PubChem BioAssay data set” (2004).
Activity calls are given as the source filed them.

Columns and labels:
Exodeoxyribonuclease V = Exodeoxyribonuclease V (Escherichia coli (strain K12), UniProt P04993+P07648+P08394); assay: E. coli RecBCD inhibitors, dose response, counter-screen for AddAB inhibitor project, absorbance, V66 E. coli, mutant T4 phage (AID 492957); assay type: functional, cell-based, Escherichia coli str. K-12 substr. MG1655
[1] = Counterscreen for AddAB inhibitors: absorbance-based bacterial cell-based high throughput dose response assay for inhibitors of bacterial viability. [Related pubchem assays (depositor defined):AID435030, AID449728, AID449731, AID488942, AID488955, AID488956]; assay type: functional
[2] = target: T1, Microphthalmia-associated transcription factor (Homo sapiens, UniProt O75030); assay: TRPM1 promoter luciferase signal decrease, dose response, MITF inhibitor project, cell-based, SK-MEL-5, cherry-picked, set 3 (AID 493073); assay type: functional
T1 sequence (O75030 whole entry): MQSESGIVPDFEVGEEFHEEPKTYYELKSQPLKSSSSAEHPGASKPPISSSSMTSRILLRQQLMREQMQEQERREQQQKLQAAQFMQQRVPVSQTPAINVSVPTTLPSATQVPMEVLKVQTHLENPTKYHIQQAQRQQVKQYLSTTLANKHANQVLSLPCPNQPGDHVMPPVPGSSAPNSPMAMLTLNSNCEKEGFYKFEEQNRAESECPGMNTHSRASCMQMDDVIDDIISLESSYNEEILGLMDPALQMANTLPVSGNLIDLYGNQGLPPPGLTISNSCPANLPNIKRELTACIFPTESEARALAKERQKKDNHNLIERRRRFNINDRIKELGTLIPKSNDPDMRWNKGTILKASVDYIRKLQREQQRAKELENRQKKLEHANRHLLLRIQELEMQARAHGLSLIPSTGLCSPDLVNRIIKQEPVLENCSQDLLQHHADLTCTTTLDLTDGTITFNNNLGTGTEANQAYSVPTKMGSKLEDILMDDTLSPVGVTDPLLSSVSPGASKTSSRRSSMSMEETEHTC

HEK293 [3] = assay: cytotoxicity in HEK293T NF-kB-Luc cells, SAR follow-up, cytotoxicity control for NF-kB activator project, cell-based, resazurin fluorescence (AID 493251); assay type: functional; details: Homo sapiens
Jurkat [4] = assay: SAR Analysis of small molecule inhibitors of T-cell specific antigen receptor-induced NF-kB activation in a Jurkat cell line using a luminescence assay - Set 2. [Related pubchem assays (depositor defined):AID435003, AID435012, AID465]; assay type: functional, cell-based; details: Homo sapiens
HEK293 [5] = assay: SAR Analysis of small molecule inhibitors of T-cell specific antigen receptor-induced NF-kB activation in a HEK-293T cell line using a luminescence assay - Set 2. [Related pubchem assays (depositor defined):AID435003, AID435012, AID489026]; assay type: functional, cell-based; details: Homo sapiens
[6] = target: G-protein coupled receptor 55 (Homo sapiens, UniProt Q9Y2T6); assay: GPR55 antagonists, SAR follow-up, counter-screen for GPR35 antagonist project, imaging, image-based (AID 2397); assay type: functional
[7] = target: G-protein coupled receptor 35 (Homo sapiens, UniProt Q9HC97); assay: SAR Analysis for the identification of Selective Antagonists of ERK1/2 Activity in GPR35-Overexpressing U2OS Cells. [Related pubchem assays: 2079, 2058 ]; assay type: functional, cell-based
[8] = target: Glyceraldehyde-3-phosphate dehydrogenase (Homo sapiens, UniProt P04406)
[9] = target: T2, Dual specificity protein phosphatase 6 (Rattus norvegicus, UniProt Q64346)
T2 sequence (Q64346 whole entry): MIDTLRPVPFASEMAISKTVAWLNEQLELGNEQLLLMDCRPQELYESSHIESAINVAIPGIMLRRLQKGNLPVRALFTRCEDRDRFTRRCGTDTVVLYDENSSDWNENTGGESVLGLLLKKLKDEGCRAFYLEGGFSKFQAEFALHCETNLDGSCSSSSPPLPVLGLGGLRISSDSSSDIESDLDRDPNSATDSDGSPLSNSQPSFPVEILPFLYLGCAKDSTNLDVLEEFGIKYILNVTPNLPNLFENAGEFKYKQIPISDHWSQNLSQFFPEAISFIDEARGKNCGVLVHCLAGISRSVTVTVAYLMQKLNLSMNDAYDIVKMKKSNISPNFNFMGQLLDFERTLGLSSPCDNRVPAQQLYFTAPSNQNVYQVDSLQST

[10] = target: T2, Dual specificity protein phosphatase 6; assay type: functional
[11] = target: Tyrosine-protein phosphatase non-receptor type 7 (Homo sapiens, UniProt P35236); assay type: functional
[12] = LGR2 antagonists, dose response, cell-based, HEK293, CRE-luciferase reporter, cherry pick, set 2 (AID 743343); assay type: functional;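 further: transfected cells were stimulated with diluted bursicon conditioned medium after compound addition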
[13] = HEK293 cell cytotoxicity, dose response, cytotoxicity control, plate reader, cherry-picked samples (AID 743446); assay type: functional, cell-based
[14] = non-specific cell cytotoxicity, dose response, cytotoxicity control for PAX8 inhibitor project, plate reader, dry powder samples (AID 743021); assay type: functional, cell-based
[15] = MC4R antagonists, dose response, counter-screen for LGR2 antagonist project, cell-based, plate reader, cherry pick (AID 743444); assay type: functional;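 further: transfected HEK 293 cells stimulated with alpha-MSH peptide; potency of inhibitors of the alpha-MSH evoked signal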
Paired box protein Pax-8 = Paired box protein Pax-8 (Homo sapiens, UniProt Q06710); assay: inhibitors of PAX8-driven TPO luciferase reporter, dose response, RMG-I cells, cherry-pick (AID 687027); assay type: functional, cell-based;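 further: luciferase reporter driven by Pax8 target thyroperoxidase promoter measured by SteadyGlo luminescence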
Jurkat [16] = assay: antigen receptor-induced NF-kB inhibitors, dose response, Jurkat, luciferase reporter, luminescence, B- and T-cell (AID 489004); assay type: functional, cell-based; details: Homo sapiens;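 further: NF-kB luciferase reporter Jurkat cells stimulated with PMA plus ionomycin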
[17] = cytotoxicity in HEK-293T NF-kB-Luc cells, dose response, cytotoxicity control for B/T-cell NF-kB inhibitor project, cell-based, uHTS hits (AID 489019); assay type: functional;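 further: IC50 reflects cytotoxicity as loss of cell viability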
[18] = HepG2 cell cytotoxicity, dose response, cytotoxicity control, plate reader, cherry-pick, antagonist series (AID 743416); assay type: functional, cell-based
[19] = A549 cell cytotoxicity, dose response, cytotoxicity control, plate reader, cherry-pick, antagonist series (AID 743412); assay type: functional, cell-based
[20] = target: Lysine-specific demethylase 4A (Homo sapiens, UniProt O75164); assay: JMJD2A histone demethylase inhibitors, dose response, selectivity assay for GASC-1 inhibitor project, biochemical, DELFIA europium, cherry-picked samples (AID 488840)
[21] = target: Sphingosine 1-phosphate receptor 4 (Homo sapiens, UniProt O95977); assay: Fluorescence dose response cell-based high throughput screening assay for agonists of the Sphingosine 1-Phosphate Receptor 4 (S1P4). [Related pubchem assays: 1509 (Primary screen.), 1523 (Confirmation screen in triplicates.)]; assay type: functional
[22] = target: Sphingosine 1-phosphate receptor 3 (Homo sapiens, UniProt Q99500); assay: Late-stage fluorescence-based dose-response cell-based assay to identify agonists of the Sphingosine 1-Phosphate Receptor 4 (S1P4): Sphingosine 1-Phosphate Receptor 3 (S1P3) counterscreen assay. [Related pubchem assays (depositor defined):AID1509, AID1523, AID1563, AID1686, AID1701, AID1801, AID463107, AID463225, AID504400]; assay type: functional
[23] = target: T3, Sphingosine 1-phosphate receptor 1 (Homo sapiens, UniProt P21453); assay: Fluorescence-based counterscreen assay for S1P4 agonists: Cell-based dose response high throughput screening assay to identify agonists of the Sphingosine 1-Phosphate Receptor 1 (S1P1). [Related pubchem assays (depositor defined):AID1509, AID1523, AID1801, AID463107, AID463118, AID463119, AID463122, AID463123, AID463129, AID463225, AID504400, AID504460]; assay type: functional
[24] = target: T3, Sphingosine 1-phosphate receptor 1; assay: Late-stage fluorescence-based dose-response cell-based assay to identify agonists of the Sphingosine 1-Phosphate Receptor 4 (S1P4): Sphingosine 1-Phosphate Receptor 1 (S1P1) counterscreen assay. [Related pubchem assays (depositor defined):AID1509, AID1523, AID1563, AID1686, AID1701, AID1801, AID463107, AID463225, AID504400]; assay type: functional
[25] = target: Sphingosine 1-phosphate receptor 2 (Homo sapiens, UniProt O95136); assay: Late-stage fluorescence-based dose-response cell-based assay to identify agonists of the Sphingosine 1-Phosphate Receptor 4 (S1P4): Sphingosine 1-Phosphate Receptor 2 (S1P2) counterscreen assay. [Related pubchem assays (depositor defined):AID1509, AID1523, AID1563, AID1686, AID1701, AID1801, AID463107, AID463225, AID504400]; assay type: functional
[26] = target: Sphingosine 1-phosphate receptor 5 (Homo sapiens, UniProt Q9H228); assay: Late-stage fluorescence-based dose-response cell-based assay to identify agonists of the Sphingosine 1-Phosphate Receptor 4 (S1P4): Sphingosine 1-Phosphate Receptor 5 (S1P5) counterscreen assay. [Related pubchem assays (depositor defined):AID1509, AID1523, AID1563, AID1686, AID1701, AID1801, AID463107, AID463225, AID504400]; assay type: functional
[27] = target: Serine/threonine-protein phosphatase (Candida dubliniensis (strain CD36 / CBS 7987 / NCPF 3949 / NRRLY-17841) (Yeast), UniProt B9W6M3); assay: Fluorescence Cell-Based Secondary Assay to Identify Inhibitors of Calcineurin. [Related pubchem assays (depositor defined):AID1979, AID2007]; assay type: functional
Cytochrome P450 2D6 = Cytochrome P450 2D6 (Homo sapiens, UniProt P10635);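 further: CYP2D6 member of a cytochrome P450 panel assay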
Cytochrome P450 2C19 = Cytochrome P450 2C19 (Homo sapiens, UniProt P33261); assay: Cytochrome panel assay with activity outcomes. Panel member name: p450-cyp2c19 Compounds with AC50 equal or less than 10 uM are considered active; assay type: functional
[28] = cytotoxicity in HMLE control line with eGFP shRNA, dose response, counter-screen for HMLE_sh_ECad selective toxicity project, cell-based, HMLE_sh_eGFP, luminescence (AID 463074); assay type: functional, Homo sapiens;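 further: HMLE human mammary epithelial cells expressing control shRNA against eGFP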
[29] = Luminescence Cell-Based Dose Retest to Confirm Inhibitors of Cancer Stem Cells. [Related pubchem assays (depositor defined):AID2717, AID2721]; assay type: functional; details: Homo sapiens
Cytochrome P450 2C9 = Cytochrome P450 2C9 (Homo sapiens, UniProt P11712)
[30] = target: T4, Dual specificity protein phosphatase 3 (Homo sapiens, UniProt P51452); assay: VHR1 phosphatase inhibitors, primary screen, biochemical, absorbance, uHTS (AID 1654)
[31] = target: T2, Dual specificity protein phosphatase 6; assay: MKP-3 phosphatase inhibitors, primary screen, biochemical, rat enzyme, in vitro (AID 425)
[32] = target: T4, Dual specificity protein phosphatase 3; assay: VHR1 phosphatase inhibitors, biochemical (AID 1878)
[33] = target: Nucleotide-binding oligomerization domain-containing protein 1 (Homo sapiens, UniProt Q9Y239); assay: NOD1 signaling inhibitors, SAR follow-up, revised (AID 2333); assay type: functional
[34] = target: Nucleotide-binding oligomerization domain-containing protein 2 (Homo sapiens, UniProt Q9HC29); assay: PubChem AID 2334; assay type: functional
HEK293 [35] = assay: cells; details: Homo sapiens
Tumor necrosis factor = Tumor necrosis factor (Homo sapiens, UniProt P01375); assay: TNFa-triggered NF-kB activation inhibitors, SAR follow-up, cell-based, revised (AID 2337); assay type: functional
[36] = growth induction of Burl-1 ts yeast mutant, dose response, counter-screen for SUMOylation pathway inhibitor project, whole organism, S. cerevisiae, luminescence (AID 463199); assay type: functional

T3 sequence (P21453 whole entry): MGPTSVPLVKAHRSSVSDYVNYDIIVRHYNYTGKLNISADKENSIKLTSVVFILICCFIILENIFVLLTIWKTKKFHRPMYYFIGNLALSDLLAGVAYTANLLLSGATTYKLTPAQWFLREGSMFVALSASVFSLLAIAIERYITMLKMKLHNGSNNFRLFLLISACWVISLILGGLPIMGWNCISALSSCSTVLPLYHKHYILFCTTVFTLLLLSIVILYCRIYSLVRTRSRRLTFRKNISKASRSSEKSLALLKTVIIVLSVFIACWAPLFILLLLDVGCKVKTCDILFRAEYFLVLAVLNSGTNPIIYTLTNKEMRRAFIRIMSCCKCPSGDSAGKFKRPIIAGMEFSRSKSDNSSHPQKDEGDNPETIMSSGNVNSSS
T4 sequence (P51452 whole entry): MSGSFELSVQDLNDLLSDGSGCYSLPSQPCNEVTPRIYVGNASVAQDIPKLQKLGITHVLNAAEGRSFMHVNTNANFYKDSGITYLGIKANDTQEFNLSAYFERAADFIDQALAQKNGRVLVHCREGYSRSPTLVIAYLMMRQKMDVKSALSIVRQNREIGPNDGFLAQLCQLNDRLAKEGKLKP
Chain of Exodeoxyribonuclease V (P04993 whole entry): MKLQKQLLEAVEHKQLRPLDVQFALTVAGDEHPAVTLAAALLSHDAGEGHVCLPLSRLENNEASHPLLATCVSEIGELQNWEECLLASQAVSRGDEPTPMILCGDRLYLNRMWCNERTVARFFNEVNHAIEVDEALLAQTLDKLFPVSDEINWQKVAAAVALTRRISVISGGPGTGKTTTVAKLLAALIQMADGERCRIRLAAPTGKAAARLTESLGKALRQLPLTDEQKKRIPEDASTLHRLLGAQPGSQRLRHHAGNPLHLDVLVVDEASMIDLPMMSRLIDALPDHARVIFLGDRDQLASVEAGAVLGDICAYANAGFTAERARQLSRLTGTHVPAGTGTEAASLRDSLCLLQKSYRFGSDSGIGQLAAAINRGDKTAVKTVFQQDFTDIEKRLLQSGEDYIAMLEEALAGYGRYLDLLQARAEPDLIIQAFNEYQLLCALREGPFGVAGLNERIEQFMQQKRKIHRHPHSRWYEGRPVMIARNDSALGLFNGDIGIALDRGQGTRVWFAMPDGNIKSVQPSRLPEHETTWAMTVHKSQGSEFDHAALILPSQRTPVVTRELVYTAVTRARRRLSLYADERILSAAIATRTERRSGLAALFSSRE
Chain of Exodeoxyribonuclease V (P07648 whole entry): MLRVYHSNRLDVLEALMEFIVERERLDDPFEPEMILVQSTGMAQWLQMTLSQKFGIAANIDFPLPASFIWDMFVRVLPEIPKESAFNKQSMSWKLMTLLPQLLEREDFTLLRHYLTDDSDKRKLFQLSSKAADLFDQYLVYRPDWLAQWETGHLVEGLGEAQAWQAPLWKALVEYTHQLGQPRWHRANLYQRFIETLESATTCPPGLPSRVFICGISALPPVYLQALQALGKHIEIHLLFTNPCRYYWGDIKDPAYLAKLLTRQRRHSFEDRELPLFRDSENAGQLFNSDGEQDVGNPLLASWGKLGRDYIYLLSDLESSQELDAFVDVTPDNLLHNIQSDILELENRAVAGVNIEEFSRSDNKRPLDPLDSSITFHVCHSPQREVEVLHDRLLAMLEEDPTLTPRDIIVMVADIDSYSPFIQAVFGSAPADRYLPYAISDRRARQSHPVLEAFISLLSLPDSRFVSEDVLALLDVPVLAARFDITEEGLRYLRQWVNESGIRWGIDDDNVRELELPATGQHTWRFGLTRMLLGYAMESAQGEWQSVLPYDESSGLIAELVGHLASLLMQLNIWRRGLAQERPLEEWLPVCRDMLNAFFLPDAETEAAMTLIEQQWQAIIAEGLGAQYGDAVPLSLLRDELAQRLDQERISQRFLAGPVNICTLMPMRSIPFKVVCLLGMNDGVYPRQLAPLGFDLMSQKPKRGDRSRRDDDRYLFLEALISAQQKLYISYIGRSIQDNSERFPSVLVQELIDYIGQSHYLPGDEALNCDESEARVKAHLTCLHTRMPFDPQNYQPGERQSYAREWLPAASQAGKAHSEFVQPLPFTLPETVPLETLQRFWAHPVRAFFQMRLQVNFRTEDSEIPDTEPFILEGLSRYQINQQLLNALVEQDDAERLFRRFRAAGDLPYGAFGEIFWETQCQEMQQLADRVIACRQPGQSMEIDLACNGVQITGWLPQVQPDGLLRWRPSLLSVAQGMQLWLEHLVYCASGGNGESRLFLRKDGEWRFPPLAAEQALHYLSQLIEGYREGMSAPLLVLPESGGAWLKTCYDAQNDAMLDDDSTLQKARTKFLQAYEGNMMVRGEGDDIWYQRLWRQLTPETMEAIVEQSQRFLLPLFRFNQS
Chain of Exodeoxyribonuclease V (P08394 whole entry): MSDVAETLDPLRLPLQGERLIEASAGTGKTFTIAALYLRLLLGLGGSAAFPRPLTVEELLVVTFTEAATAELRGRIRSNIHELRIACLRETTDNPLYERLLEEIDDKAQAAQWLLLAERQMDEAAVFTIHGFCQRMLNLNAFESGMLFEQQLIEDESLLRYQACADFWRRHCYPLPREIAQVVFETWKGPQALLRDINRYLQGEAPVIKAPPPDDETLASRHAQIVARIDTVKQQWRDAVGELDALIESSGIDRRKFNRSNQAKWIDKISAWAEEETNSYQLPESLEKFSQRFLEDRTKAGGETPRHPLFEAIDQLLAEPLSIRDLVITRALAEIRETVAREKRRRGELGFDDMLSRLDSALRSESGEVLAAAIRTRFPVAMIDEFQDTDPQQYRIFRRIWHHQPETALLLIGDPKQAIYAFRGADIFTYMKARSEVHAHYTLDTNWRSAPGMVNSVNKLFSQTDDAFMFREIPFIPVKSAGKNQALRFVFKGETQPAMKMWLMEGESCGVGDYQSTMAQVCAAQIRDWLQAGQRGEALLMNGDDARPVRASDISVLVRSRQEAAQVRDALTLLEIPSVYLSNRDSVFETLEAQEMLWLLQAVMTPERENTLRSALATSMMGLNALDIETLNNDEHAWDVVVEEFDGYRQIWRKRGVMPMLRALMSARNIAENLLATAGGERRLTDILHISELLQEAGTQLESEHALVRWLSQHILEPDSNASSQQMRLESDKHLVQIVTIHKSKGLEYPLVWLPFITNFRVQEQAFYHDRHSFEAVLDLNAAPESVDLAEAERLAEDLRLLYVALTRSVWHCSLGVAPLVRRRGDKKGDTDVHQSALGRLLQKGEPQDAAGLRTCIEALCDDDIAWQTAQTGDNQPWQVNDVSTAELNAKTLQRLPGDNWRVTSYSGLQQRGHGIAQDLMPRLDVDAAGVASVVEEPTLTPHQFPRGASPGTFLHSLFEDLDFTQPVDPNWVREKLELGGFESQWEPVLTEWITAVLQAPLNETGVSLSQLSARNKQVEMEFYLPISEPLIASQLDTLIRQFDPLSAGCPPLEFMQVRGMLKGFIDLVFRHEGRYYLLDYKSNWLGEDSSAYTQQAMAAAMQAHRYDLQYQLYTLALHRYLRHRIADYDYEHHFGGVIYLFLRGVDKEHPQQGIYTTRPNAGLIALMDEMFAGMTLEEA
Chain of Nucleotide-binding oligomerization domain-containing protein 2 (Q9HC29 whole entry, the tested form may be a part): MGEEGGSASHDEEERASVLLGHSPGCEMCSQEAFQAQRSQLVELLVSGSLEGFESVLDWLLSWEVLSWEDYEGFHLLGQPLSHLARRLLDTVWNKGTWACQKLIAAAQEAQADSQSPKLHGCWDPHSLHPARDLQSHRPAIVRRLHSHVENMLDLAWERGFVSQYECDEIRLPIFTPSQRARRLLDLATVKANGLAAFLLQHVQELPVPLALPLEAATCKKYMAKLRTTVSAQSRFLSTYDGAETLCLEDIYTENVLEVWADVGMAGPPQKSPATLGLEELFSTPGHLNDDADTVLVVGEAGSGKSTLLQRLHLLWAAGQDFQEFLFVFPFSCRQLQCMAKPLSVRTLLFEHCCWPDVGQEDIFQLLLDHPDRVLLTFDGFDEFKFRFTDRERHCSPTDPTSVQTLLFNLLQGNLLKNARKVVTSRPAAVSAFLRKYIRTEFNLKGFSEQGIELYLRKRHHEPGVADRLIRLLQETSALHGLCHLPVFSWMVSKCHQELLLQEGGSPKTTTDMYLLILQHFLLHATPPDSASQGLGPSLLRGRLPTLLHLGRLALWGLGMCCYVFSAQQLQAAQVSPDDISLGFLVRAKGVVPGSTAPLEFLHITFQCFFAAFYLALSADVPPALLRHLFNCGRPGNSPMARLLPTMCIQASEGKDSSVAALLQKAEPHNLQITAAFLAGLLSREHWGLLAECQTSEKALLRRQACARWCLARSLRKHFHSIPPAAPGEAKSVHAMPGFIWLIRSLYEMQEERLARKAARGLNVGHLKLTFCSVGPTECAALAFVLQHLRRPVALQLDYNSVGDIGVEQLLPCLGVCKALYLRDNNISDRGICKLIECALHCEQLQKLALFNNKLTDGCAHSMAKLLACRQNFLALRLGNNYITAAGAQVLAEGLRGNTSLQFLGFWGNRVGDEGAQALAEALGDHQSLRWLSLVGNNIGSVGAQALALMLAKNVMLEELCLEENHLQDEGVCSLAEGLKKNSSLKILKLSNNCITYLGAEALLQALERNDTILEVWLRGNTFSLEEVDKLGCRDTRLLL
Chain of G-protein coupled receptor 55 (Q9Y2T6 whole entry): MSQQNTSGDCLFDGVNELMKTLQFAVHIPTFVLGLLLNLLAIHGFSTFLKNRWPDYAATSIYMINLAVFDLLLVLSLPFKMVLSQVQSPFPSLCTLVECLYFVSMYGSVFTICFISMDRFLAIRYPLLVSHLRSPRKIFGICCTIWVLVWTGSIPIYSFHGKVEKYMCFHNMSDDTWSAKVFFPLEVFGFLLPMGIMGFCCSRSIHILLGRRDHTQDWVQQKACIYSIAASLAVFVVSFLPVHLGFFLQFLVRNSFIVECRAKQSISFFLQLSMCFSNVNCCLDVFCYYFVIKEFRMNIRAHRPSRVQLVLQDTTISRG

O=C(Cc1ccc2c(c1)OCO2)NN=Cc1ccc([N+](=O)[O-])o1
IC50 (Exodeoxyribonuclease V): > 39.5 µM (inactive) | IC50 [1]: 21 µM (inactive) | AC50 [2]: 8.55 µM (active)

CC(=O)c1cccc(NC(=O)c2ccc([N+](=O)[O-])o2)c1
IC50 (HEK293 [3]): 69.3 µM (inactive) | IC50 (Jurkat [4]): 27.6 µM (inactive) | IC50 (HEK293 [5]): 37.1 µM (inactive)

O=C(Nc1ccc2nc(SCc3ccccc3)sc2c1)c1ccccc1C(=O)N1CCOCC1
IC50 [6]: 12.3 µM (inactive) | IC50 [7]: 4.58 µM (active)

CCC(CC)c1nnc(NC(=O)Cc2cccs2)s1
IC50 [8]: 99.7 µM (active) | IC50 [9]: > 100 µM (inactive) | IC50 [10]: > 100 µM (inactive) | IC50 [11]: 88 µM (active)

CCOc1ccc(NC(=O)Nc2cccc(C(=O)O)c2)cc1
AC50 [12]: 0.303 µM (active) | AC50 [13]: 40.4 µM (active) | AC50 [14]: 11.7 µM (active) | AC50 [15]: 0.319 µM (active) | AC50 (Paired box protein Pax-8): 3.85 µM (active) | IC50 (Jurkat [16]): 0.85 µM (active) | IC50 [17]: > 80 µM (inactive) | AC50 [18]: > 52 µM (inactive) | AC50 [2]: 1.53 µM (active) | AC50 [19]: 45.1 µM (active)

CN(C(=O)c1ccc(NC(=O)Cc2ccc(NC(=O)C3CCN(C(=O)C4CCC4)CC3)cc2)cc1)C1CC1
AC50 [20]: > 60 µM (inactive)

Cc1ccc(OCCOc2ccc(Cl)cc2Cl)c([N+](=O)[O-])n1
EC50 [21]: 0.529 µM (active) | EC50 [22]: > 50 µM (inactive) | EC50 [23]: > 49.8 µM (inactive) | EC50 [24]: > 50 µM (inactive) | EC50 [25]: > 50 µM (inactive) | EC50 [26]: > 50 µM (inactive)

O=C(Nc1nnc(SCc2ccc(Cl)cc2)s1)c1ccc2ccccc2n1
EC50 [27]: > 285 µM (inactive)

CC1=C(C(=O)O)N2C(=O)[C@@H](NC(=O)[C@@H](N)C3=CCC=CC3)[C@@H]2SC1
AC50 (Cytochrome P450 2D6): inconclusive | AC50 (Cytochrome P450 2C19): inconclusive

Cc1nn(-c2ccc(F)cc2)c(Cl)c1/C=C(\CCC(=O)O)c1nc2ccccc2s1
AC50 [28]: 23.5 µM (active) | AC50 [29]: 18.7 µM (active) | AC50 (Cytochrome P450 2C9): 39.8 µM (inconclusive)

O=C(O)c1cc(-c2ccc(/C=c3\sc4nc5ccc(Br)cc5n4c3=O)o2)ccc1Cl
IC50 [30]: 3.97 µM (active) | IC50 [31]: 12 µM (active) | IC50 [32]: 1.42 µM (active)

CC(C)(C)NC(=S)NNC=C1C=C(Br)C(=O)C(Br)=C1
IC50 [33]: 7.29 µM (active) | IC50 [34]: 7.93 µM (active) | IC50 (HEK293 [35]): > 20 µM (inactive) | IC50 (Tumor necrosis factor): 15.6 µM (active)

CCCCn1c(/N=C/c2ccc3c(c2)OCO3)nc2ccccc21
AC50 [36]: 60 µM (active)
